Test systems include A549 NSCLC; CAKI-1 renal; HCT-15 colon; HT29 colon; KM12 colon; M14 melanoma; SW-620 colon; TK-10 renal; SR leukemia.
Common to all, as to assay: inhibition of tumour cell growth, NCI panel, 48 h

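In this assay, cells in 96-well plates receive the compound at five concentrations for 48 hours. Endpoints are linearly interpolated between the surrounding concentrations. At the GI50, growth is halved. TGI: concentration producing complete growth inhibition.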 A value given as a limit tells only on which side of the number the result lay.

As to `COc1ccc(O)c2c1C(=O)CCCC2=O`, the TGI in the assay on A549 NSCLC, in the assay with CAKI-1 renal, in the assay on HCT-15 colon, in the assay on HT29 colon, in the assay with KM12 colon and with M14 melanoma was more than 100 µM throughout. The TGI in the assay with SW-620 colon and in the assay with TK-10 renal was more than 100 µM in each case.

As to `CCc1cccc(C)c1NC(=O)NS(=O)(=O)c1ccc(C)cc1`, the TGI with A549 NSCLC, in the assay on CAKI-1 renal, with HCT-15 colon, in the assay on KM12 colon, in the assay with M14 melanoma and in the assay with SW-620 colon was more than 100 µM in each case. This molecule returned a TGI in the assay with TK-10 renal of more than 100 µM.

As for `COc1ccc(C(=O)C=C2NCCN2)cc1`, the TGI with A549 NSCLC, in the assay on CAKI-1 renal, with HT29 colon, in the assay on KM12 colon, in the assay with M14 melanoma and in the assay with SR leukemia was more than 100 µM each time. In addition, the TGI with SW-620 colon and in the assay with TK-10 renal was more than 100 µM throughout.

With `Fc1ccccc1C1CC(C(c2ccccc2)c2ccccc2)=Nc2ccccc2S1` (centres undefined), the TGI with A549 NSCLC was 46.4 µM; with CAKI-1 renal, 20.1 µM; in the assay on HCT-15 colon it was 30.8 µM; in the assay with HT29 colon it was 26.3 µM; with KM12 colon, 23.1 µM; in the assay on M14 melanoma, 25.7 µM. Also, the TGI in the assay on SW-620 colon was determined as 31 µM; in the assay with TK-10 renal it was 25.2 µM.

As to `COc1ccc(C2S/C(=C\c3ccc(OC)cc3OC)C(=O)N2NC(=O)Cc2ccccc2)cc1` (centres undefined), the TGI in the assay with A549 NSCLC, in the assay with CAKI-1 renal, with HCT-15 colon, with HT29 colon, in the assay on KM12 colon and with M14 melanoma was more than 100 µM throughout. The TGI with SR leukemia, with SW-620 colon and in the assay on TK-10 renal was more than 100 µM throughout.

Turning to `CCOC(=O)C(C[Si](C)(C)C)P(=O)(OCC)OCC` (centres undefined), the TGI with A549 NSCLC, with CAKI-1 renal, in the assay on HCT-15 colon, in the assay on HT29 colon, in the assay on KM12 colon and in the assay with M14 melanoma was more than 100 µM throughout. Moreover, the TGI in the assay with SR leukemia, with SW-620 colon and in the assay on TK-10 renal was more than 100 µM throughout.

Take `CC(=O)Nc1ccc(-c2nnc(SCC(=O)Nc3ccc(C)cc3)o2)cc1`: the TGI was more than 100 µM in the assay with A549 NSCLC; 24.9 µM in the assay with CAKI-1 renal; 30 µM with HCT-15 colon; 31.1 µM with HT29 colon; 37.8 µM in the assay with KM12 colon; 29.8 µM in the assay with M14 melanoma. Also, the TGI in the assay with SR leukemia came to 98.2 µM; in the assay with SW-620 colon it was 33.3 µM; in the assay on TK-10 renal, 53.6 µM.

On to `COc1cccc(C2C(C(=O)Nc3cc(=O)n(C)c(=O)n3C)=C(C)NC(C)=C2C(=O)Nc2cc(=O)n(C)c(=O)n2C)c1O`, for which the TGI in the assay with A549 NSCLC, in the assay with CAKI-1 renal, with HT29 colon, with KM12 colon, with M14 melanoma and in the assay on SW-620 colon was more than 100 µM in each case. Moreover, the TGI with TK-10 renal is more than 100 µM.

For `Cc1nc(C(N)=S)sc1C(=O)/C=C/c1cccc(O)c1`, the TGI with A549 NSCLC, with CAKI-1 renal, in the assay with HCT-15 colon, in the assay on HT29 colon, in the assay on KM12 colon and in the assay with SW-620 colon was more than 100 µM throughout. In addition, the TGI with TK-10 renal is more than 100 µM.

In the case of `COc1ccccc1/C=C\c1cc(OC)c(OC)c(OC)c1`, the TGI in the assay with A549 NSCLC, in the assay on CAKI-1 renal, in the assay on HCT-15 colon, in the assay on HT29 colon, with KM12 colon and with M14 melanoma was more than 100 µM throughout. In addition, the TGI in the assay with SW-620 colon and in the assay on TK-10 renal was more than 100 µM each time.

As to `O=c1cccccc1NCCCCNc1cccccc1=O`, the TGI in the assay on A549 NSCLC, in the assay on CAKI-1 renal, in the assay on HCT-15 colon, in the assay on HT29 colon, in the assay with KM12 colon and in the assay on M14 melanoma was more than 100 µM each time. Moreover, the TGI in the assay on SW-620 colon and in the assay with TK-10 renal was more than 100 µM in each case.

For the molecule `CCOC(=O)C(C)(C)Oc1ccc2c(-c3ccc(Cl)cc3)cc(=O)oc2c1`, the TGI in the assay on A549 NSCLC, in the assay on HCT-15 colon, in the assay with HT29 colon, in the assay with M14 melanoma, in the assay with SR leukemia and in the assay with SW-620 colon was more than 100 µM in each case. Also, the TGI in the assay on TK-10 renal was more than 100 µM.

For `COc1cc2c(cc1C)n(O)c(C)c(C(=O)C/C(=N/NC(=O)C[N+](C)(C)C)C(=O)Nc1cccc(Cl)c1C)[n+]2=O`, the TGI in the assay on A549 NSCLC, in the assay on CAKI-1 renal, in the assay with HCT-15 colon, in the assay with HT29 colon, with KM12 colon and with M14 melanoma was more than 100 µM throughout. Besides, the TGI in the assay on SR leukemia, in the assay with SW-620 colon and in the assay with TK-10 renal was more than 100 µM in each case.

As to `CCOC(=O)C12CC1(C(=O)OCC)C1CCC2C1` (centres undefined), the TGI with A549 NSCLC, in the assay with CAKI-1 renal, with HCT-15 colon, with HT29 colon, in the assay on M14 melanoma and in the assay on SR leukemia was more than 100 µM each time. Moreover, the TGI in the assay on SW-620 colon and in the assay with TK-10 renal was more than 100 µM throughout.

For the molecule `COc1ccc2c(c1)CC[C@@H]1C2CC[C@]2(C)C(=O)NC(=O)CC12` (some centres undefined), the TGI in the assay with A549 NSCLC, with CAKI-1 renal, in the assay with HCT-15 colon, in the assay on HT29 colon, in the assay with KM12 colon and in the assay with M14 melanoma was more than 100 µM in each case. Moreover, the TGI with SW-620 colon and in the assay on TK-10 renal was more than 100 µM throughout.

Consider `C=C(C)C1/C=C(/C(C)C)CC[C@]2(C)O[C@@H]2CC[C@H](C)CC1=O` (some centres undefined), for which the GI50 in the assay with A549 NSCLC is 48.5 µM; in the assay on CAKI-1 renal, 35.3 µM; in the assay with HCT-15 colon, more than 100 µM; with KM12 colon, 58.1 µM; in the assay with M14 melanoma, 49.6 µM; in the assay with SR leukemia, 19.2 µM. For the same molecule, the GI50 with TK-10 renal is 66.6 µM. Also, the TGI in the assay on A549 NSCLC is more than 100 µM; in the assay with CAKI-1 renal, more than 100 µM; with HCT-15 colon, more than 100 µM; with KM12 colon, more than 100 µM; in the assay with M14 melanoma, more than 100 µM; in the assay with SR leukemia it was 58.5 µM. In addition, in the assay on TK-10 renal, the TGI was more than 100 µM.

The record behind these values is PubChem BioAssay (NCI).
